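Interpolation was linear, between the two tested concentrations surrounding the appropriate level; five concentrations were tested over 48 hours in 96-well plates. GI50 marks 50% less growth. TGI denotes the concentration required for complete inhibition of growth.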
What was measured:
Test in all cases: NCI anticancer screen, dose series, 48 h; in the data active = GI50 below about 0.43 µM; inactive = the rest
ACHN renal = system: ACHN renal
HS 578T breast = system: HS 578T breast
HL-60(TB) leukemia = system: HL-60(TB) leukemia
CCRF-CEM leukemia = system: CCRF-CEM leukemia
OVCAR-3 ovarian = system: OVCAR-3 ovarian
RXF 393 renal = system: RXF 393 renal
TK-10 renal = system: TK-10 renal
CAKI-1 renal = system: CAKI-1 renal
SW-620 colon = system: SW-620 colon
UO-31 renal = system: UO-31 renal
SF-539 CNS = system: SF-539 CNS
NCI/ADR-RES ovarian = system: NCI/ADR-RES ovarian
DU-145 prostate = system: DU-145 prostate
HOP-92 NSCLC = system: HOP-92 NSCLC
SK-OV-3 ovarian = system: SK-OV-3 ovarian
NCI-H23 lung = system: NCI-H23 lung
UACC-62 melanoma = system: UACC-62 melanoma
K-562 leukemia = system: K-562 leukemia
SK-MEL-28 melanoma = system: SK-MEL-28 melanoma
SF-268 CNS = system: SF-268 CNS
NCI-H522 lung = system: NCI-H522 lung
SNB-75 CNS = system: SNB-75 CNS
KM12 colon = system: KM12 colon
OVCAR-8 ovarian = system: OVCAR-8 ovarian
A498 renal = system: A498 renal
RPMI-8226 leukemia = system: RPMI-8226 leukemia
PC-3 prostate = system: PC-3 prostate
MOLT-4 leukemia = system: MOLT-4 leukemia
HCC-2998 colon = system: HCC-2998 colon
NCI-H460 lung = system: NCI-H460 lung
SK-MEL-2 melanoma = system: SK-MEL-2 melanoma
EKVX NSCLC = system: EKVX NSCLC
SR leukemia = system: SR leukemia
BT-549 breast = system: BT-549 breast
U251 CNS = system: U251 CNS
786-0 renal = system: 786-0 renal
HCT-116 colon = system: HCT-116 colon
IGROV1 ovarian = system: IGROV1 ovarian
HOP-62 NSCLC = system: HOP-62 NSCLC
SF-295 CNS = system: SF-295 CNS
OVCAR-5 ovarian = system: OVCAR-5 ovarian
HCT-15 colon = system: HCT-15 colon
MDA-MB-231 breast = system: MDA-MB-231 breast
T-47D breast = system: T-47D breast
SN12C renal = system: SN12C renal
HT29 colon = system: HT29 colon
UACC-257 melanoma = system: UACC-257 melanoma
MALME-3M melanoma = system: MALME-3M melanoma
OVCAR-4 ovarian = system: OVCAR-4 ovarian
SNB-19 CNS = system: SNB-19 CNS
A549 NSCLC = system: A549 NSCLC
LOX IMVI melanoma = system: LOX IMVI melanoma
SK-MEL-5 melanoma = system: SK-MEL-5 melanoma
MCF7 breast = system: MCF7 breast
M14 melanoma = system: M14 melanoma
NCI-H226 lung = system: NCI-H226 lung
MDA-MB-435 = system: MDA-MB-435

NC(N)=Nc1ccc(Oc2cccc(Nc3ccc(Cl)cc3)c2)cn1
5080 nM: TGI (RPMI-8226 leukemia)
3240 nM: TGI (NCI-H23 lung)
3370 nM: TGI (RXF 393 renal)
3630 nM: TGI (OVCAR-3 ovarian)
20500 nM: TGI (NCI/ADR-RES ovarian)
2840 nM: TGI (PC-3 prostate)
3270 nM: TGI (DU-145 prostate)
5270 nM: TGI (CCRF-CEM leukemia)
3750 nM: TGI (SF-268 CNS)
4580 nM: TGI (KM12 colon)
2570 nM: TGI (SNB-75 CNS)
3170 nM: TGI (CAKI-1 renal)
3120 nM: TGI (SK-MEL-28 melanoma)
4520 nM: TGI (HS 578T breast)
2390 nM: TGI (HOP-92 NSCLC)
3300 nM: TGI (TK-10 renal)
4160 nM: TGI (SK-OV-3 ovarian)
3550 nM: TGI (SW-620 colon)
inactive: GI50 (ACHN renal) 1730 nM | GI50 (HS 578T breast) 1990 nM | GI50 (HL-60(TB) leukemia) 2520 nM | GI50 (CCRF-CEM leukemia) 2040 nM | GI50 (OVCAR-3 ovarian) 1800 nM | GI50 (RXF 393 renal) 1780 nM | GI50 (TK-10 renal) 1690 nM | GI50 (CAKI-1 renal) 1640 nM | GI50 (SW-620 colon) 1830 nM | GI50 (UO-31 renal) 1710 nM | GI50 (SF-539 CNS) 1650 nM | GI50 (NCI/ADR-RES ovarian) 4050 nM | GI50 (DU-145 prostate) 1760 nM | GI50 (HOP-92 NSCLC) 1070 nM | GI50 (SK-OV-3 ovarian) 2110 nM | GI50 (NCI-H23 lung) 1660 nM | GI50 (UACC-62 melanoma) 1740 nM | GI50 (K-562 leukemia) 2660 nM | GI50 (SK-MEL-28 melanoma) 1670 nM | GI50 (SF-268 CNS) 1720 nM | GI50 (NCI-H522 lung) 1530 nM | GI50 (SNB-75 CNS) 1270 nM | GI50 (KM12 colon) 2080 nM | GI50 (OVCAR-8 ovarian) 1970 nM | GI50 (A498 renal) 1170 nM | GI50 (RPMI-8226 leukemia) 2020 nM | GI50 (PC-3 prostate) 1460 nM
4460 nM: TGI (OVCAR-8 ovarian)
3280 nM: TGI (UO-31 renal) | TGI (UACC-62 melanoma)
4750 nM: TGI (HL-60(TB) leukemia)
8210 nM: TGI (K-562 leukemia)
3130 nM: TGI (ACHN renal) | TGI (SF-539 CNS) | TGI (NCI-H522 lung)
2660 nM: TGI (A498 renal)

Cc1cn(-c2cc(NC(=O)c3cncc(C#Cc4cnc5ccc(OCCCS(C)(=O)=O)nn45)c3)cc(C(F)(F)F)c2)cn1
3000 nM: TGI (NCI-H522 lung)
3360 nM: TGI (KM12 colon)
2510 nM: TGI (HL-60(TB) leukemia)
1760 nM: TGI (SNB-75 CNS)
7030 nM: TGI (HS 578T breast)
10500 nM: TGI (SK-MEL-5 melanoma)
7350 nM: TGI (SF-539 CNS)
11800 nM: TGI (CAKI-1 renal)
active: GI50 (HL-60(TB) leukemia) 401 nM | GI50 (CCRF-CEM leukemia) 389 nM | GI50 (SR leukemia) 303 nM | GI50 (HCT-116 colon) 317 nM | GI50 (HOP-92 NSCLC) 188 nM | GI50 (K-562 leukemia) 128 nM | GI50 (MALME-3M melanoma) 397 nM | GI50 (MCF7 breast) 310 nM | GI50 (SNB-75 CNS) 129 nM
4820 nM: TGI (SR leukemia)
2880 nM: TGI (SK-MEL-2 melanoma)
3320 nM: TGI (RXF 393 renal)
6710 nM: TGI (MOLT-4 leukemia)
6980 nM: TGI (SF-268 CNS)
3220 nM: TGI (HCT-116 colon)
713 nM: TGI (HOP-92 NSCLC)
5110 nM: TGI (MALME-3M melanoma)
3610 nM: TGI (CCRF-CEM leukemia)
2520 nM: TGI (MCF7 breast)
92600 nM: TGI (RPMI-8226 leukemia)
inactive: GI50 (ACHN renal) 4760 nM | GI50 (HS 578T breast) 1430 nM | GI50 (MOLT-4 leukemia) 635 nM | GI50 (OVCAR-3 ovarian) 2510 nM | GI50 (HCC-2998 colon) 1940 nM | GI50 (NCI-H460 lung) 3000 nM | GI50 (RXF 393 renal) 1140 nM | GI50 (SK-MEL-2 melanoma) 427 nM | GI50 (TK-10 renal) 3210 nM | GI50 (CAKI-1 renal) 501 nM | GI50 (EKVX NSCLC) 2350 nM | GI50 (SW-620 colon) 462 nM | GI50 (BT-549 breast) 1700 nM | GI50 (U251 CNS) 2670 nM | GI50 (UO-31 renal) 3590 nM | GI50 (SF-539 CNS) 552 nM | GI50 (786-0 renal) 2010 nM | GI50 (IGROV1 ovarian) 527 nM | GI50 (HOP-62 NSCLC) 1140 nM | GI50 (SF-295 CNS) 29100 nM | GI50 (NCI/ADR-RES ovarian) > 100000 nM | GI50 (DU-145 prostate) 1180 nM | GI50 (OVCAR-5 ovarian) 1790 nM | GI50 (HCT-15 colon) 5840 nM | GI50 (SK-OV-3 ovarian) > 100000 nM | GI50 (MDA-MB-231 breast) 430 nM | GI50 (T-47D breast) 1760 nM | GI50 (SN12C renal) 551 nM | GI50 (UACC-62 melanoma) 706 nM | GI50 (HT29 colon) 706 nM | GI50 (UACC-257 melanoma) 3980 nM | GI50 (OVCAR-4 ovarian) 5780 nM | GI50 (SNB-19 CNS) 2570 nM | GI50 (SK-MEL-28 melanoma) 1510 nM | GI50 (A549 NSCLC) 5340 nM | GI50 (LOX IMVI melanoma) 875 nM | GI50 (SK-MEL-5 melanoma) 1550 nM | GI50 (SF-268 CNS) 1410 nM | GI50 (NCI-H522 lung) 1210 nM | GI50 (M14 melanoma) 1100 nM | GI50 (OVCAR-8 ovarian) 649 nM | GI50 (A498 renal) > 100000 nM | GI50 (RPMI-8226 leukemia) 2550 nM | GI50 (PC-3 prostate) 5880 nM | GI50 (NCI-H226 lung) 922 nM | GI50 (MDA-MB-435) 1490 nM
10600 nM: TGI (BT-549 breast)
49100 nM: TGI (NCI-H226 lung)
49400 nM: TGI (M14 melanoma)
27100 nM: TGI (LOX IMVI melanoma)
> 100000 nM: TGI (ACHN renal) | TGI (OVCAR-3 ovarian) | TGI (HCC-2998 colon) | TGI (NCI-H460 lung) | TGI (TK-10 renal) | TGI (EKVX NSCLC) | TGI (SW-620 colon) | TGI (U251 CNS) | TGI (UO-31 renal) | TGI (786-0 renal) | TGI (IGROV1 ovarian) | TGI (HOP-62 NSCLC) | TGI (SF-295 CNS) | TGI (NCI/ADR-RES ovarian) | TGI (DU-145 prostate) | TGI (OVCAR-5 ovarian) | TGI (HCT-15 colon) | TGI (SK-OV-3 ovarian) | TGI (MDA-MB-231 breast) | TGI (T-47D breast) | TGI (SN12C renal) | TGI (UACC-62 melanoma) | TGI (HT29 colon) | TGI (K-562 leukemia) | TGI (UACC-257 melanoma) | TGI (OVCAR-4 ovarian) | TGI (SNB-19 CNS) | TGI (SK-MEL-28 melanoma) | TGI (A549 NSCLC) | TGI (OVCAR-8 ovarian) | TGI (A498 renal) | TGI (PC-3 prostate) | TGI (MDA-MB-435)

Reference: PubChem BioAssay (NCI)
